# Experimental data taken from the supplement of paper PMC11208160.
# Experiment: recombinant UMI read abundance after kanamycin selection (control-corrected) (log10(CPM+1)); higher = more efficient recombination; extreme values may be limits of the assay; sequences stand for … in AGTGCAGAGAAAATCGGCCAGTTTTCTCTGCCTGCAGTCCGCATGCCGTGGGACCCCTTGGGTTCTAACCTGTTGCCTAGATTTATGCAGCGGACTGCCTTTCTCCCAAAGTGATAAACCGG…AGGTTGGTTTCACT; site = the 11-nt donor
# How it was run: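 In a pooled Escherichia coli screen for the IS621 bridge recombinase, donor and donor-binding-loop pairs were each placed with a 12-nt UMI on a plasmid bearing a promoterless kanamycin gene. This library was co-electroporated with a target plasmid encoding a fixed target and T7-inducible recombinase, and cells were plated either on IPTG (0.07 mM) plus kanamycin or without selection, in two replicates each. Recombinant UMIs were PCR-amplified across the donor–target junction and sequenced, and counts were converted to CPM, averaged over replicates, scaled by control-derived factors and reported as log10(CPM+1).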
row,Sequence,recombinant UMI read abundance (log10)
1,GCGAAGCCATGGACCGGTTTTCCCGGTAATCCGTATTTGGG (site GCTAAGCCTCC),0.0212
2,GCGAAGCCATGGACCGGTTTTCCCGGTAATCCGTATTTGGG (site GGGAAGCCTCC),0.0306
3,GCGAAGCCATGGACCGGTTTTCCCGGTAATCCGTATTTGGG (site GTGAAGCCTCC),0.0355
4,GCGAAGCCATGGACCGGTTTTCCCGGTAATCCGTATTTGGG (site TCGAAGCCTCC),0.0116
5,GCGAATCCATGGACCGGTTTTCCCGGTAATCCGTATTTGGG (site GCGAAACCTCC),0.0049
6,GCGAATCCATGGACCGGTTTTCCCGGTAATCCGTATTTGGG (site GCGAACCCTCC),0
7,GCGAATCCATGGACCGGTTTTCCCGGTAATCCGTATTTGGG (site GCGAAGCCTCC),0.23
8,GCGAATCCATGGACCGGTTTTCCCGGTAATCCGTATTTGGG (site GCGAATCCTCC),0.00555
9,GCGACGCCATGGACCGGTTTTCCCGGTAATCCGTATTTGTC (site GCGACGCCTGA),2.1
10,GCGAGAACATGGACCGGTTTTCCCGGTAATCCGTATTTGCT (site GCGAAAACTAG),1.35
11,GCGAGAACATGGACCGGTTTTCCCGGTAATCCGTATTTGCT (site GCGACAACTAG),0
12,GCGAGAACATGGACCGGTTTTCCCGGTAATCCGTATTTGCT (site GCGAGAACTAG),2.24
13,GCGAGAACATGGACCGGTTTTCCCGGTAATCCGTATTTGCT (site GCGATAACTAG),0.492
14,GCGAGCTCATGGACCGGTTTTCCCGGTAATCCGTATTTGGG (site GCGAGCTCTCC),0.714
15,GCGATCCCATGGACCGGTTTTCCCGGTAATCCGTATTTGCG (site GCGATCCCTCG),1.71
16,GCGCCCTCATGGACCGGTTTTCCCGGTAATCCGTATTTGGC (site TGAAGTCCTCT),0.0178
17,GCGCCGACATGGACCGGTTTTCCCGGTAATCCGTATTTGAC (site GCGCCGACTGT),2.07
18,GCGCGAACATGGACCGGTTTTCCCGGTAATCCGTATTTGAC (site GCGCGAACTGT),1.77
19,GCGCGCGCATGGACCGGTTTTCCCGGTAATCCGTATTTGGA (site GCGCGCGCTTC),0.527

row,Sequence,recombinant UMI read abundance (log10)
1,GCGCGGGCATGGACCGGTTTTCCCGGTAATCCGTATTTGGC (site GCGCGGGCTGC),2.54
2,GCGCTAACATGGACCGGTTTTCCCGGTAATCCGTATTTGAC (site GCGCTAACTGT),2.61
3,GCGCTAGCATGGACCGGTTTTCCCGGTAATCCGTATTTGCA (site GCGCTAGCTTG),2.2
4,GCGCTGGCATGGACCGGTTTTCCCGGTAATCCGTATTTGCG (site GCGCTGGCTCG),0.891
5,GCGGAATCATGGACCGGTTTTCCCGGTAATCCGTATTTGTT (site GCGGAATCTAA),2.76
6,GCGGAGCCATGGACCGGTTTTCCCGGTAATCCGTATTTGGG (site GCGAAGCCTCC),0.0138
7,GCGGAGCCATGGACCGGTTTTCCCGGTAATCCGTATTTGGG (site GCGCAGCCTCC),0
8,GCGGAGCCATGGACCGGTTTTCCCGGTAATCCGTATTTGGG (site GCGGAGCCTCC),0.0323
9,GCGGAGCCATGGACCGGTTTTCCCGGTAATCCGTATTTGGG (site GCGTAGCCTCC),0.0221
10,GCGGAGGCATGGACCGGTTTTCCCGGTAATCCGTATTTGAG (site GCGGAGGCTCT),1.89
11,GCGGCCCCATGGACCGGTTTTCCCGGTAATCCGTATTTGAT (site GCGGCCCCTAT),0.00951
12,GCGGCGACATGGACCGGTTTTCCCGGTAATCCGTATTTGGC (site GCGGCGACTGC),1.99
13,GCGGGTGCATGGACCGGTTTTCCCGGTAATCCGTATTTGTA (site GCGGGTGCTTA),2.6
14,GCGTAATCATGGACCGGTTTTCCCGGTAATCCGTATTTGCC (site GCGTAATCTGG),2.11
15,GCGTACGCATGGACCGGTTTTCCCGGTAATCCGTATTTGTT (site GCGTACGCTAA),1.84
16,GCGTAGCCATGGACCGGTTTTCCCGGTAATCCGTATTTGGG (site GCGAAGCCTCC),0.00823
17,GCGTAGCCATGGACCGGTTTTCCCGGTAATCCGTATTTGGG (site GCGCAGCCTCC),0.00818
18,GCGTAGCCATGGACCGGTTTTCCCGGTAATCCGTATTTGGG (site GCGGAGCCTCC),0.0167
19,GCGTAGCCATGGACCGGTTTTCCCGGTAATCCGTATTTGGG (site GCGTAGCCTCC),0.0103

row,Sequence,recombinant UMI read abundance (log10)
1,GCGTCACCATGGACCGGTTTTCCCGGTAATCCGTATTTGTT (site GCGTCACCTAA),0.0187
2,GCGTTTACATGGACCGGTTTTCCCGGTAATCCGTATTTGCT (site ACGTTTACTAG),1.3
3,GCGTTTACATGGACCGGTTTTCCCGGTAATCCGTATTTGCT (site CCGTTTACTAG),0
4,GCGTTTACATGGACCGGTTTTCCCGGTAATCCGTATTTGCT (site GCGTTTACTAG),1.6
5,GCGTTTACATGGACCGGTTTTCCCGGTAATCCGTATTTGCT (site TCGTTTACTAG),0.474
6,GCTAAAACATGGACCGGTTTTCCCGGTAATCCGTATTTGCT (site GCAAAAACTAG),0
7,GCTAAAACATGGACCGGTTTTCCCGGTAATCCGTATTTGCT (site GCCAAAACTAG),0
8,GCTAAAACATGGACCGGTTTTCCCGGTAATCCGTATTTGCT (site GCGAAAACTAG),1.28
9,GCTAAAACATGGACCGGTTTTCCCGGTAATCCGTATTTGCT (site GCTAAAACTAG),1.01
10,GCTAACTCATGGACCGGTTTTCCCGGTAATCCGTATTTGGG (site GCTAACTCTCC),0.0314
11,GCTAAGCCATGGACCGGTTTTCCCGGTAATCCGTATTTGGG (site GCAAAGCCTCC),0.00437
12,GCTAAGCCATGGACCGGTTTTCCCGGTAATCCGTATTTGGG (site GCCAAGCCTCC),0.0229
13,GCTAAGCCATGGACCGGTTTTCCCGGTAATCCGTATTTGGG (site GCGAAGCCTCC),0.00564
14,GCTAAGCCATGGACCGGTTTTCCCGGTAATCCGTATTTGGG (site GCTAAGCCTCC),0.0172
15,GCTAAGTCATGGACCGGTTTTCCCGGTAATCCGTATTTGTG (site GCTAAGTCTCA),2.06
16,GCTACAGCATGGACCGGTTTTCCCGGTAATCCGTATTTGCC (site GCTACAGCTGG),1.42
17,GCTACAGCATGGACCGGTTTTCCCGGTAATCCGTATTTGCC (site GCTACCGCTGG),0
18,GCTACAGCATGGACCGGTTTTCCCGGTAATCCGTATTTGCC (site GCTACGGCTGG),0.477
19,GCTACAGCATGGACCGGTTTTCCCGGTAATCCGTATTTGCC (site GCTACTGCTGG),0
